From ChEMBL document CHEMBL1130211, “Synthesis and anti-hepatitis B virus activity of 9-(2-deoxy-2-fluoro-beta-L-arabinofuranosyl) purine nucleosides” (J Med Chem, 1997) come the findings set out here.

The term IC50 denotes the concentration needed to halve the response being measured. A lower IC50 goes with greater potency in that assay. For orientation: EC50 means the concentration that produces a half-maximal response. Read a high EC50 as lower potency in that assay.

Holding throughout (type): functional, cell-based
Common to all, as to conditions: Homo sapiens

Test [1] deals with HepG2. Kind of test: The cytotoxicity against HepG2 2.2.15 cells expressed as IC50.
The subject of test [2] is HepG2. Kind of test: compound was tested in vitro for anti HBV activity in HepG2 2.2.15 cells.
For test [3], the system named is HepG2. In words: The cytotoxicity against 2.2.15 cells expressed as IC50.
For test [4], the system named is CCRF-CEM. In words: The cytotoxicity against CEM cells.

Regarding `OC[C@@H]1O[C@H](n2cnc3cncnc32)[C@H](F)[C@H]1O`, in test [1], the half-inhibitory concentration (IC50) is greater than 200 µM. For the same compound, the EC50 in test [2] is greater than 10 µM.

As for `OC[C@@H]1O[C@H](n2cnc3c(S)ncnc32)[C@H](F)[C@H]1O`, the IC50 in test [3] is greater than 200 µM. The same compound gave an EC50 in test [2] greater than 10 µM.

`CN(C)c1ncnc2c1ncn2[C@H]1O[C@@H](CO)[C@H](O)[C@H]1F` came in with an IC50 in test [1] greater than 200 µM. The compound also displayed an EC50 in test [2] greater than 10 µM.

`CNc1ncnc2c1ncn2[C@H]1O[C@@H](CO)[C@H](O)[C@H]1F` came in with an IC50 in test [1] greater than 200 µM. For the same compound, in test [2], the EC50 was greater than 10 µM.

As for `Nc1nc(Cl)nc2c1ncn2[C@@H]1O[C@H](CO)[C@@H](O)[C@H]1F`, the IC50 in test [3] was greater than 200 µM. The compound further gave an EC50 in test [2] greater than 10 µM.

As to `OC[C@H]1O[C@@H](n2cnc3c(O)ncnc32)[C@H](F)[C@@H]1O`, the figures for the IC50 in test [3] and in test [4] were greater than 200 µM and greater than 100 µM, respectively. Also, in test [2], the EC50 stood at 8 µM.

For `Nc1nc(N)c2ncn([C@@H]3O[C@H](CO)[C@@H](O)[C@H]3F)c2n1`, the IC50 in test [3] is greater than 180 µM. The EC50 in test [2] was greater than 10 µM.

As for `OC[C@H]1O[C@@H](n2cnc3c(NC4CC4)ncnc32)[C@H](F)[C@@H]1O`, the IC50 in test [1] was greater than 200 µM. This compound also yielded an EC50 in test [2] greater than 10 µM.

Consider `Nc1ncnc2c1ncn2[C@@H]1O[C@H](CO)[C@@H](O)[C@H]1F` [2'-BETA-FLUORO-2',3'-DEOXYADENOSINE], for which the IC50 in test [1] was greater than 200 µM; in test [4], 90 µM. In test [2], this compound had an EC50 of 1.5 µM.

Consider `Nc1nc(O)c2ncn([C@@H]3O[C@H](CO)[C@@H](O)[C@@H]3F)c2n1` [F-ARAG], for which the IC50 is greater than 200 µM in test [3] and greater than 100 µM in test [4]. In test [2], the EC50 was greater than 10 µM.
